In publication PMC4698714, “Allosteric effects of chromophore interaction with dimeric near-infrared fluorescent proteins engineered from bacterial phytochromes” (Scientific Reports, 2016):

Biological target: T1, iRFP713 (Rhodopseudomonas palustris, UniProt G1FNL7, C15S)
T1 construct: gene iRFP; N-terminal polyhistidine tag; E. coli LMG194 with heme oxygenase; dimer
Assay: zinc-staining SDS-PAGE, absorption/fluorescence spectra, GdnHCl unfolding
Settings: noncovalent; GAF pocket; no BV-binding Cys

C=CC1=C(C)C(=Cc2[nH]c(C=C3N=C(C=C4NC(=O)C(C)=C4C=C)C(C)=C3CCC(=O)O)c(CCC(=O)O)c2C)NC1=O [biliverdin IXα]
zinc-staining SDS-PAGE, absorption/fluorescence spectra, GdnHCl unfolding: BV was the most weakly associated with NIR FP variants having no Cys residues
